Values quoted from earlier work as cited in US11571429B2, “Method and compounds for treating peripheral neuropathy” (UPEXMED CO. LTD., priority 2017, dated 2023).

System: diabetic neuropathy pain
Conditions: taken orally

## CN(C)CCC=C1c2ccccc2CCc2ccccc21 [Amitriptyline, amitriptyline]
  NNT; number of patients needed to treat for at least 50% pain relief: 1.3
